Experimental findings from patent publication US6720346B2, “Thiazole benzamide derivatives and pharmaceutical compositions for inhibiting cell proliferation” (Agouron Pharmaceuticals, Inc., priority 2001, dated 2004) are described below.

The target of one experiment is T1, CDK2/cyclin A (Homo sapiens, UniProt P24941).
T1 construct: made in house; host or cells: CDK2: insect cells (baculovirus); cyclin A: E. coli
As to the kind of experiment: Inhibition of CDK2/cyclin A retinoblastoma kinase activity (Ki; % inhibition). The format is biochemical. Particulars: for Ki: apparent Ki, CDK2/cyclin A, Rb substrate. Put shortly:
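Apparent Ki values came from fitting concentration-dependent activity data to competitive (or competitive tight-binding) models, and % inhibition from single 30 nM screens of library compounds. Activity was measured as ³²P/³³P incorporation from 25 μM ATP into an Rb substrate by 10 or 19 nM CDK2/delta cyclin A at 30 °C over 60–75 min, pH 7.4.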

A further experiment deals with T2, human CDK4/cyclin D3 (Homo sapiens, UniProt P11802).
T2 construct: made in house; host or cells: insect cells co-infected with baculovirus vectors
As to the kind of experiment: Inhibition of CDK4/cyclin D retinoblastoma kinase activity (Ki; % inhibition). The format is biochemical. Particulars: for Ki: apparent Ki, CDK4/cyclin D3, Rb substrate. The procedure, abridged: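 Radiometric filter-binding read-out: Rb residues 386-928 phosphorylated by 5 nM CDK4/cyclin D3(1-264) from baculovirus-infected insect cells, 25 μM ATP, HEPES pH 7.4, 30 °C. Run 20 min, or 60 min for tight-binding inhibitors. Screening at 30 nM theoretical compound; apparent Ki by competitive-inhibition fitting.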

For another experiment, the system named is HCT-116 cell line. Briefly: Inhibition of cell growth, MTT tetrazolium salt assay. The format is cell-based. Particulars: for IC50: Homo sapiens, HCT-116, 120 h, MTT, three to five days. The procedure, abridged:
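Cells in McCoy's 5A medium were given 4 h before compound addition in 0.5% (v/v) DMSO, then incubated 3–5 days at 37 °C, 5% CO2. After 4 h with 0.2 mg/mL MTT, DMSO-solubilized formazan was read at 540 nm; 50% and 90% growth-inhibitory concentrations came from semi-log plots against vehicle controls.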

[1] abbreviates: HCT-116 cells, 0.25 μM compound.

Where only a bound is given, the exact number is not on record here.

T2 sequence (P11802 whole entry): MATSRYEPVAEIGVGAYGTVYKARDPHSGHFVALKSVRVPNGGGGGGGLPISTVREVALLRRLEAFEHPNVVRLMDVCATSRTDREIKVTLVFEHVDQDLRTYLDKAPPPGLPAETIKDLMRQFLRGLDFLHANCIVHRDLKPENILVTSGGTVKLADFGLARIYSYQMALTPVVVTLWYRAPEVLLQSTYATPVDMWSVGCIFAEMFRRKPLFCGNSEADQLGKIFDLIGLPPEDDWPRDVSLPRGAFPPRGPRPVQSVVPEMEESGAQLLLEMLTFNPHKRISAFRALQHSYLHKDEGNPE
T2 sequence (P30281 1-264 partner limits assumed): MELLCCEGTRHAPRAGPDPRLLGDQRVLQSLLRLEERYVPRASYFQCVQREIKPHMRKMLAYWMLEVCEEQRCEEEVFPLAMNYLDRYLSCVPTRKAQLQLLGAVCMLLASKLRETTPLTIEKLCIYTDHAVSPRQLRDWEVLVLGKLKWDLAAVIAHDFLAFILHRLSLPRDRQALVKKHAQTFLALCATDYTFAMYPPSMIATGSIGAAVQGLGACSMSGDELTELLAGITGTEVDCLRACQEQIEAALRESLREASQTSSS

With `Nc1nc(Nc2ccc(C(=O)NCc3ccc(Cl)c(Cl)c3)cc2)sc1C(=O)c1c(F)cccc1F` [Example G336], the “CDK2 % Inhibition at 0.03 μM” value at CDK2/cyclin A (0.03 μM compound) is on record as 36%. In addition, the “CDK4 % Inhibition at 0.03 μM” value at human CDK4/cyclin D3 (0.03 μM compound) was 36%. For the same compound, the “HCT-116 % Inhibition at 0.1 μM” value in the experiment on HCT-116 cell line (HCT-116 cells, 0.1 μM compound) is reported as 12%. For the same compound, in the experiment on HCT-116 cell line (setting [1]), the “HCT-116 % Inhibition at 0.25 μM” value was determined as 51%.
`CCCCN(CCO)C(=O)c1ccc(Nc2nc(N)c(C(=O)c3c(F)cccc3F)s2)cc1` [Example G4]: on CDK2/cyclin A (at 0.03 μM), the “CDK2 % Inhibition at 0.03 μM” value is −7%. Besides, the “CDK4 % Inhibition at 0.03 μM” value on human CDK4/cyclin D3 (at 0.03 μM) was 4%. In the experiment with HCT-116 cell line (HCT-116, at 0.25 μM), the “HCT-116 % Inhibition at 0.25 μM” value came to 53%.
A word on the IC50: it is the midpoint of a concentration-inhibition curve. As to `C[C@@H](NC(=O)c1ccc(Nc2nc(N)c(C(=O)c3c(F)cccc3F)s2)cc1)C(=O)O` [Example A65], the Ki on CDK2/cyclin A came to 160 nM; on human CDK4/cyclin D3, 57 nM. The IC50 in the experiment with HCT-116 cell line was more than 500 nM.
On to `CCN(C)C(=O)c1ccc(Nc2nc(N)c(C(=O)c3c(F)cccc3F)s2)cc1` [Example G290], for which, at CDK2/cyclin A (0.03 μM compound), the “CDK2 % Inhibition at 0.03 μM” value was −12%. Moreover, on human CDK4/cyclin D3 (0.03 μM compound), the “CDK4 % Inhibition at 0.03 μM” value was −2%. The “HCT-116 % Inhibition at 0.1 μM” value with HCT-116 cell line (HCT-116 cells, 0.1 μM compound) is on record as 2%. Moreover, the “HCT-116 % Inhibition at 0.25 μM” value in the experiment with HCT-116 cell line (setting [1]) came out at 39%.
Take `Nc1nc(Nc2ccc(C(=O)Nc3ccc(-c4csnn4)cc3)cc2)sc1C(=O)c1c(F)cccc1F` [Example G30]: the “CDK2 % Inhibition at 0.03 μM” value at CDK2/cyclin A (at 0.03 μM) was 5%. At human CDK4/cyclin D3 (at 0.03 μM), the “CDK4 % Inhibition at 0.03 μM” value is recorded as 5%. Also, the “HCT-116 % Inhibition at 0.25 μM” value with HCT-116 cell line (HCT-116, at 0.25 μM) is 82%.
For `Nc1nc(Nc2ccc(C(=O)Nc3ccccc3F)cc2)sc1C(=O)c1c(F)cccc1F` [Example G235], on CDK2/cyclin A (0.03 μM compound), the “CDK2 % Inhibition at 0.03 μM” value is on record as 14%. On human CDK4/cyclin D3 (0.03 μM compound), the “CDK4 % Inhibition at 0.03 μM” value amounted to 14%. Further, in the experiment on HCT-116 cell line (HCT-116 cells, 0.1 μM compound), the “HCT-116 % Inhibition at 0.1 μM” value is reported as 10%. Moreover, in the experiment on HCT-116 cell line (setting [1]), the “HCT-116 % Inhibition at 0.25 μM” value was determined as 51%.
As for `Cc1ccsc1C(=O)c1sc(Nc2ccc(C(=O)NC[C@@H]3CCCN3C)cc2)nc1N` [Example A70, 4-{4-Amino-5-[1-(3-methyl-thiophen-2-yl)-methanoyl]-thiazol-2-ylamino}-N-(1-methyl-pyrrolidin-2S-ylmethyl)-benzamide], the Ki was 6.1 nM on CDK2/cyclin A and 128 nM at human CDK4/cyclin D3. In addition, the IC50 with HCT-116 cell line stood at 23 nM.
Turning to `CN1CC[C@H](NC(=O)c2ccc(Nc3nc(N)c(C(=O)c4c(F)cccc4F)s3)cc2)C1` [Example A32, 4-[4-Amino-5-(2,6-difluoro-benzoyl)-thiazol-2-ylamino]-N-(1-methyl-pyrrolidin-3S-yl)-benzamide], the Ki was found to be 77 nM on CDK2/cyclin A and 6 nM on human CDK4/cyclin D3. Further, the IC50 in the experiment on HCT-116 cell line is 280 nM.
On to `Cc1ccccc1CNC(=O)c1ccc(Nc2nc(N)c(C(=O)c3c(F)cccc3F)s2)cc1` [Example G244], for which, on CDK2/cyclin A (0.03 μM compound), the “CDK2 % Inhibition at 0.03 μM” value was 35%. Further, the “CDK4 % Inhibition at 0.03 μM” value on human CDK4/cyclin D3 (0.03 μM compound) worked out at 27%. Also, the “HCT-116 % Inhibition at 0.1 μM” value with HCT-116 cell line (HCT-116 cells, 0.1 μM compound) is 30%. Moreover, the “HCT-116 % Inhibition at 0.25 μM” value in the experiment on HCT-116 cell line (setting [1]) amounted to 67%.
On to `Cc1ccc(CNC(=O)c2ccc(Nc3nc(N)c(C(=O)c4c(F)cccc4F)s3)cc2)cc1Cl` [Example G275], for which the “CDK2 % Inhibition at 0.03 μM” value on CDK2/cyclin A (0.03 μM compound) is reported as 27%. The “CDK4 % Inhibition at 0.03 μM” value at human CDK4/cyclin D3 (0.03 μM compound) stood at 19%. Also, in the experiment with HCT-116 cell line (HCT-116 cells, 0.1 μM compound), the “HCT-116 % Inhibition at 0.1 μM” value is 25%. Moreover, the “HCT-116 % Inhibition at 0.25 μM” value in the experiment with HCT-116 cell line (setting [1]) came out at 63%.
In the same order, the values of `CCCCN(CCCCO)C(=O)c1ccc(Nc2nc(N)c(C(=O)c3c(F)cccc3F)s2)cc1` [Example G340] are −12%, 9%, 28% and 40%.
In the same order, the values of `C=CCN(C(=O)c1ccc(Nc2nc(N)c(C(=O)c3c(F)cccc3F)s2)cc1)C1CCCCC1` [Example G320] are −15%, 5%, 12% and 46%.
Regarding `Nc1nc(Nc2ccc(C(=O)NCCN3CCOCC3)cc2)sc1C(=O)c1c(F)cccc1F` [Example G124], the “CDK2 % Inhibition at 0.03 μM” value at CDK2/cyclin A (at 0.03 μM) is given as 10%. In addition, the “CDK4 % Inhibition at 0.03 μM” value on human CDK4/cyclin D3 (at 0.03 μM) stood at 17%. The “HCT-116 % Inhibition at 0.1 μM” value with HCT-116 cell line (HCT-116, at 0.1 μM) is given as 0%. Moreover, in the experiment on HCT-116 cell line (HCT-116, at 0.25 μM), the “HCT-116 % Inhibition at 0.25 μM” value worked out at 64%.
For `NC(=O)CCNC(=O)c1ccc(Nc2nc(N)c(C(=O)c3c(F)cccc3F)s2)cc1` [Example G137], the “CDK2 % Inhibition at 0.03 μM” value on CDK2/cyclin A (at 0.03 μM) amounted to 2%. Further, at human CDK4/cyclin D3 (at 0.03 μM), the “CDK4 % Inhibition at 0.03 μM” value amounted to 25%. Besides, in the experiment with HCT-116 cell line (HCT-116, at 0.1 μM), the “HCT-116 % Inhibition at 0.1 μM” value is listed as 0%. For the same compound, the “HCT-116 % Inhibition at 0.25 μM” value in the experiment with HCT-116 cell line (HCT-116, at 0.25 μM) is 59%.
As for `Nc1nc(Nc2ccc(C(=O)N3CC=CC3)cc2)sc1C(=O)c1c(F)cccc1F` [Example G40], the “CDK2 % Inhibition at 0.03 μM” value on CDK2/cyclin A (at 0.03 μM) came to 4%. In addition, on human CDK4/cyclin D3 (at 0.03 μM), the “CDK4 % Inhibition at 0.03 μM” value worked out at 18%. The “HCT-116 % Inhibition at 0.25 μM” value with HCT-116 cell line (HCT-116, at 0.25 μM) is 61%.
